Reference: patent US9062124B2, “GIP-based mixed agonists for treatment of metabolic disorders and obesity” (priority 2008, dated 2015)
Read-outs that look alike come from different tables or passages of the source. *1 amine or outer side, *2 acyl side, *3 side chain or, on linkers, in order; H or OH if unused. Where a SMILES comes first, the peptide text is derived from it. Bridges are numbered along the chain shown (N, C = ends). Where no end group is shown, it is not given here. Side-chain parts run from the residue outwards. [ ]: non-standard residue; d: D form. PEG 40 kDa = PEG (40 kDa) covalently attached to Cys; γGlu = O=C(O)[C@H](CCC(=O)[*:2])N[*:1]; Abu = CC[C@H](N)C(=O)O; Aib = CC(C)(N)C(=O)O

What was measured:
GIP receptor = target: T1, GIP receptor (Homo sapiens, UniProt P48546); test: cAMP synthesis functional assay (firefly luciferase reporter in HEK293 cells), GIP receptor; type: cell-based
T1 construct: expressed in transfected cells; host or cells: HEK293
T1 sequence (P48546 22-466): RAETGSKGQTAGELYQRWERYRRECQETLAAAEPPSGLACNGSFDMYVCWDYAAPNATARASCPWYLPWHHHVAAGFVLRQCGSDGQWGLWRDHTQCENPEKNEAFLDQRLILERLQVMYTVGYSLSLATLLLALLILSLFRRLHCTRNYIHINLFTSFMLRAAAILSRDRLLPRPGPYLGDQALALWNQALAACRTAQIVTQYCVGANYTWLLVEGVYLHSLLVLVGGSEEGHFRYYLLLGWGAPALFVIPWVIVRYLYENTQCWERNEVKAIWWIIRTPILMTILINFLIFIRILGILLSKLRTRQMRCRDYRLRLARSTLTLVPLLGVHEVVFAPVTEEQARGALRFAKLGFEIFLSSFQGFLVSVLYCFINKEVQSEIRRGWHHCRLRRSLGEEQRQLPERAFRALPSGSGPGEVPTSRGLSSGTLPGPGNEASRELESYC

[1] = tested on: glucagon receptor, GLP-1 receptor or GIP receptor; test: Agonist profile across receptors assigned from the cAMP reporter assay data; type: cell-based; conditions: assigned from the in vitro EC50 data of Tables 1-4
GLP-1 receptor = target: T2, GLP-1 receptor (Homo sapiens, UniProt P43220); test: cAMP synthesis functional assay (firefly luciferase reporter in HEK293 cells), GLP-1 receptor; type: cell-based; conditions: for EC50: read-out: GLP-1 Receptor EC50
T2 construct: expressed in transfected cells; host or cells: HEK293

glucagon receptor = target: T3, glucagon receptor (Homo sapiens, UniProt P47871); test: cAMP synthesis functional assay (firefly luciferase reporter in HEK293 cells), glucagon receptor; type: cell-based; conditions: for EC50: read-out: Glucagon Receptor EC50
T3 construct: expressed in transfected cells; host or cells: HEK293

[2] = Body weight of mice after peptide injection; conditions: Example 41; DIO mice, subcutaneous daily for 7 days, 10 nmol/kg, Day 7
[3] = relative to the standard (Std.) EC50 of the same run
[4] = Table 4, relative to the native hormone
[5] = Table 1, relative to the native hormone of the indicated receptor

T2 sequence (P43220 24-463, species assumed): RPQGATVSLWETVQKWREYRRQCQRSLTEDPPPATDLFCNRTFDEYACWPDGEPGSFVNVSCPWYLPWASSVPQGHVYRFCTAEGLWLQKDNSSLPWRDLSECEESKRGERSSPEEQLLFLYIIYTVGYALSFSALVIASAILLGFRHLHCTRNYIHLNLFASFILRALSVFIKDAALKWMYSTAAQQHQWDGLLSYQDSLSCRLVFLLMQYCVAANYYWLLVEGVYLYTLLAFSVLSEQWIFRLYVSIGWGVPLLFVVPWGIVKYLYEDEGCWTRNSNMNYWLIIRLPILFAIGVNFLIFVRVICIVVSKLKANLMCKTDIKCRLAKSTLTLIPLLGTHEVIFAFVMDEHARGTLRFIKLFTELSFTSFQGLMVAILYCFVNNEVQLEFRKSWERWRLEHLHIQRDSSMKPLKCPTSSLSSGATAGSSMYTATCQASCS
T3 sequence (P47871 26-477): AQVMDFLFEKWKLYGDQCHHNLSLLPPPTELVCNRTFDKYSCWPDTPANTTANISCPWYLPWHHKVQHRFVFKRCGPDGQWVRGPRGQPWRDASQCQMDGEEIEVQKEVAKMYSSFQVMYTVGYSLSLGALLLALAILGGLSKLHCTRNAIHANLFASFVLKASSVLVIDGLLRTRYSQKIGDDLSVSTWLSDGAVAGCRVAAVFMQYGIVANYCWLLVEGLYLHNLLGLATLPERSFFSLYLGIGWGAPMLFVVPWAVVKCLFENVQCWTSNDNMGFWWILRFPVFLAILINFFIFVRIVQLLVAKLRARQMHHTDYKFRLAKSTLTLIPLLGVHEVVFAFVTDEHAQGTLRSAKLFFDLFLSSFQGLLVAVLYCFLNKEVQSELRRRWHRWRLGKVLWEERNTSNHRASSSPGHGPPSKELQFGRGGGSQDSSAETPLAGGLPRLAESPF

## CC[C@H](C)[C@H](NC(=O)[C@H](CO)NC(=O)[C@H](Cc1ccc(O)cc1)NC(=O)[C@H](CC(=O)O)NC(=O)[C@H](CO)NC(=O)[C@H](CO)NC(=O)[C@H](Cc1ccccc1)NC(=O)[C@@H](NC(=O)CNC(=O)[C@H](CCC(N)=O)NC(=O)C(C)(C)NC(=O)[C@@H](N)Cc1ccc(O)cc1)[C@@H](C)O)C(=O)N[C@@H](Cc1ccc(O)cc1)C(=O)N[C@@H](CC(C)C)C(=O)N[C@@H](CC(=O)O)C(=O)N[C@@H](CCCCN)C(=O)N[C@@H](CCC(N)=O)C(=O)N[C@@H](C)C(=O)N[C@@H](C)C(=O)NC(C)(C)C(=O)N[C@@H](CCC(=O)O)C(=O)N[C@@H](Cc1ccccc1)C(=O)N[C@H](C(=O)N[C@@H](CC(N)=O)C(=O)N[C@@H](Cc1c[nH]c2ccccc12)C(=O)N[C@@H](CC(C)C)C(=O)N[C@@H](CC(C)C)C(=O)N[C@@H](C)C(=O)NCC(=O)NCC(=O)N1CCC[C@H]1C(=O)N[C@@H](CO)C(=O)N[C@@H](CO)C(=O)NCC(=O)N[C@@H](C)C(=O)N1CCC[C@H]1C(=O)N1CCC[C@H]1C(=O)N1CCC[C@H]1C(=O)N[C@@H](CO)C(=O)N[C@@H](CS)C(N)=O)C(C)C [mt-324] (H-Y[Aib]QGTFSSDYSIYLDKQAA[Aib]EFVNWLLAGGPSSGAPPPSC-NH2; N-terminus assumed)
GIP receptor; [3]
  GIP Receptor relative activity: 30.23%
[1]
  receptor activity profile (glucagon / GLP-1 / GIP agonism): exhibited activity at the GIP, GLP-1, and glucagon receptors
GLP-1 receptor; [3]
  GLP-1 Receptor relative activity: 9.68%
Glucagon receptor; [3]
  Glucagon Receptor relative activity: 6.41%

## CC[C@H](NC(=O)[C@H](Cc1ccccc1)NC(=O)[C@@H](NC(=O)CNC(=O)[C@H](CCC(N)=O)NC(=O)C(C)(C)NC(=O)[C@@H](N)Cc1ccc(O)cc1)[C@@H](C)O)C(=O)N[C@@H](CO)C(=O)N[C@@H](CC(=O)O)C(=O)N[C@@H](Cc1ccc(O)cc1)C(=O)N[C@@H](CO)C(=O)N[C@H](C(=O)N[C@@H](Cc1ccc(O)cc1)C(=O)N[C@@H](CC(C)C)C(=O)N[C@@H](CC(=O)O)C(=O)N[C@@H](CCCCN)C(=O)N[C@@H](CCC(N)=O)C(=O)N[C@@H](C)C(=O)N[C@@H](C)C(=O)NC(C)(C)C(=O)N[C@@H](CCC(=O)O)C(=O)N[C@@H](Cc1ccccc1)C(=O)N[C@H](C(=O)N[C@@H](CC(N)=O)C(=O)N[C@@H](Cc1c[nH]c2ccccc12)C(=O)N[C@@H](CC(C)C)C(=O)N[C@@H](CC(C)C)C(=O)N[C@@H](C)C(=O)NCC(=O)NCC(=O)N1CCC[C@H]1C(=O)N[C@@H](CO)C(=O)N[C@@H](CO)C(=O)NCC(=O)N[C@@H](C)C(=O)N1CCC[C@H]1C(=O)N1CCC[C@H]1C(=O)N1CCC[C@H]1C(=O)N[C@@H](CO)C(=O)N[C@@H](CS)C(N)=O)C(C)C)[C@@H](C)CC [mt-325] (H-Y[Aib]QGTF[Abu]SDYSIYLDKQAA[Aib]EFVNWLLAGGPSSGAPPPSC-NH2; N-terminus assumed)
GIP receptor; [3]
  GIP Receptor relative activity: 111.43%
[1]
  receptor activity profile (glucagon / GLP-1 / GIP agonism): exhibited activity at the glucagon and GIP receptors, but not at the GLP-1 receptor
GLP-1 receptor; [3]
  GLP-1 Receptor relative activity: 0.83%
Glucagon receptor; [3]
  Glucagon Receptor relative activity: 86.45%

## CCCCCCCCCCCCCCCC(=O)N[C@@H](CCC(=O)N[C@@H](CCC(=O)NCCCC[C@H](NC(=O)[C@H](CO)NC(=O)[C@@H]1CCCN1C(=O)[C@@H]1CCCN1C(=O)[C@@H]1CCCN1C(=O)[C@H](C)NC(=O)CNC(=O)[C@H](CO)NC(=O)[C@H](CO)NC(=O)[C@@H]1CCCN1C(=O)CNC(=O)CNC(=O)[C@H](C)NC(=O)[C@H](CC(C)C)NC(=O)[C@H](CC(C)C)NC(=O)[C@H](Cc1c[nH]c2ccccc12)NC(=O)[C@H](CC(N)=O)NC(=O)[C@@H](NC(=O)[C@H](Cc1ccccc1)NC(=O)[C@H](CCC(=O)O)NC(=O)C(C)(C)NC(=O)[C@H](C)NC(=O)[C@H](C)NC(=O)[C@H](CCC(N)=O)NC(=O)[C@H](CCCCN)NC(=O)[C@H](CC(=O)O)NC(=O)[C@H](CC(C)C)NC(=O)[C@H](Cc1ccc(O)cc1)NC(=O)[C@@H](NC(=O)[C@H](CO)NC(=O)[C@H](Cc1ccc(O)cc1)NC(=O)[C@H](CC(=O)O)NC(=O)[C@H](CO)NC(=O)[C@@H](NC(=O)[C@H](Cc1ccccc1)NC(=O)[C@@H](NC(=O)CNC(=O)[C@H](CCC(=O)O)NC(=O)C(C)(C)NC(=O)[C@@H](N)Cc1ccc(O)cc1)[C@@H](C)O)[C@@H](C)O)[C@@H](C)CC)C(C)C)C(N)=O)C(=O)O)C(=O)O [mt-367]
GIP receptor; GIP Receptor EC50, nM, Table 4
  EC50: 0.0014 nM
GIP receptor; [4]
  GIP Receptor relative activity: 202.82%
GIP receptor; Table 8
  % Relative activity at the Receptor for GIP: 202.82%
GLP-1 receptor; [4]
  GLP-1 Receptor relative activity: 405.94%
GLP-1 receptor; Table 8
  % Relative activity at the Receptor for GLP-1: 405.94%
[2]
  total change in body weight (weight loss, decrease): ~18%
Glucagon receptor; [4]
  Glucagon Receptor relative activity: 4.11%
Glucagon receptor; Table 8
  % Relative activity at the Receptor for Glucagon: 4.11%

## mt-179: glucagon analog peptide, C-terminal amide; called GIP/glucagon co-agonist and triagonist (Y[Aib]QGTFISDYSIYLDEQAAKEFVC(PEG 40 kDa)WLLAG-NH2; lactam 16-20)
GIP receptor; [5]
  GIP Receptor relative activity: 3.74%
GIP receptor; read-out: GIP Receptor EC50, Table 1
  EC50: 0.473 nM
[1]
  receptor activity profile (glucagon / GLP-1 / GIP agonism): exemplary GLP-1/GIP/glucagon triagonist peptides
GLP-1 receptor; [5]
  GLP-1 Receptor relative activity: 7.50%
GLP-1 receptor; Table 1
  EC50: 260 pM
Glucagon receptor; [5]
  Glucagon Receptor relative activity: 2.92%
Glucagon receptor; Table 1
  EC50: 1270 pM

## mt-249: linear peptide lacking a lactam bridge, AIB at position 16 and/or 20 (Y[Aib]QGTFTSDYSIYLD[Aib]QAAQEFVNWLLAGGPSSGAPPPSC(PEG 40 kDa)-NH2)
GIP receptor; Table 2
  GIP Receptor relative activity: 0.63%
GIP receptor; read-out: GIP Receptor EC50, Table 2
  EC50: 2.71 nM
[1]
  receptor activity profile (glucagon / GLP-1 / GIP agonism): exhibited activities of glucagon/GLP-1/GIP triagonists
GLP-1 receptor; Table 2
  GLP-1 Receptor relative activity: 2.56%
  EC50: 391 pM
Glucagon receptor; Table 2
  Glucagon Receptor relative activity: 0.59%
Glucagon receptor; Table 2, linear peptides with AIB at position 16 and/or 20
  EC50: 10300 pM

## mt-295: linear peptide of Table 3 (Y[Aib]EGTFTSDYSIYLDKQAA[Aib]EFVNWLLAGGPSSGAPPPSC(PEG 40 kDa)-NH2)
GIP receptor; read-out: GIP Receptor EC50, cAMP luciferase reporter assay as in Example 16
  EC50: 0.0577 nM
GIP receptor; [3]
  GIP Receptor relative activity: 19.06%
[1]
  receptor activity profile (glucagon / GLP-1 / GIP agonism): exhibited activity at the GIP, GLP-1, and glucagon receptors
GLP-1 receptor; cAMP luciferase reporter assay as in Example 16
  EC50: 114 pM
GLP-1 receptor; [3]
  GLP-1 Receptor relative activity: 6.74%
Glucagon receptor; [3]
  Glucagon Receptor relative activity: 0.03%

## mt-384: glucagon analog: Tyr1, AIB2, Lys10(γGlu-γGlu-C16), Ile12, Lys16, Gln17, Ala18, AIB20, Glu21, Asn24, Leu27, Ala28, Gly29, GPSSGAPPPS, amide (Y[Aib]QGTFTSDK([γGlu-γGlu-C16])SIYLDKQAA[Aib]EFVNWLLAGGPSSGAPPPS-NH2)
[2]
  total change in body weight (weight loss, decrease): ~21%

## mt-385: same structure as Peptide mt-384 except that Thr at position 7 was changed to an Ile (Y[Aib]QGTFISDK([γGlu-γGlu-C16])SIYLDKQAA[Aib]EFVNWLLAGGPSSGAPPPS-NH2)
[2]
  total change in body weight (weight loss, decrease): ~15%
